Where two headings read alike, the source gives them in different places. Ends that are not written are not given here.
Molecular target: HLA-A*02:01 molecule (UniProt P01899+P04439, D140Y/D185E/D98H/E176V/G131W/I119V/I121R/I166T/N151K/N90K/Q86G/Q94H/R138H/R169H)
Assay: cell-based
Assay type: binding, human

With AIFYLITPV [pp1a-2785] the EC50 (SD) was 5.1 ± 1.6 µM.

ALLSDLQDL [pp1a-4183] gave an EC50 (SD) of 42.4 ± 6.1 µM.

In the case of ALNLGETFV [pp1a-702], the EC50 (SD) is reported as 40.7 ± 2.8 µM.

CLHVVGPNV [pp1a-1114] showed an EC50 (SD) of 62.9 ± 2.3 µM.

With CLLNRYFRL [pp1a-3798] the EC50 (SD) was 81.6 ± 20.2 µM.

Work on FITESKPSV [pp1a-1214] yielded an EC50 (SD) of 122 ± 31.7 µM.

With FLAHIQWMV [pp1a-3122] the EC50 (SD) was 6.9 ± 0.4 µM.

FLALCADSI [pp1a-685] showed an EC50 (SD) of 10.2 ± 0.5 µM.

Work on FLARGIVFM [pp1a-3753] yielded an EC50 (SD) of 71.2 ± 12.9 µM.

FLGRYMSAL [pp1a-1642] gave an EC50 (SD) of 124 ± 1.9 µM.

In the case of FLLNKEMYL [pp1a-3183], the EC50 (SD) is reported as 12.9 ± 6.8 µM.

FLNGSCGSV [pp1a-3403] was tested, and the EC50 (SD) was 18.7 ± 3.2 µM.

FLRDGWEIV [pp1a-641] showed an EC50 (SD) of 0.9 ± 0.1 µM.

“GILFGVFTL [FMP58-66, reference compound]” gave an EC50 of 2.3 µM.

Work on GLNDNLLEI [pp1a-445] yielded an EC50 (SD) of 6 ± 0.2 µM.

GLVEVEKGV [pp1a-52] showed an EC50 (SD) of 14.5 ± 4.9 µM.

Work on IIWFLLLSV [pp1a-2230] yielded an EC50 (SD) of 177 ± 6.3 µM.

In the case of ILFTRFFYV [pp1a-2332], the EC50 (SD) is reported as 96.5 ± 14 µM.

Sequence ILGTVSWNL [pp1a-1367] has an EC50 (SD) of 123 ± 11.3 µM.

Work on ILLLDQALV [pp1a-2569] yielded an EC50 (SD) of 9.6 ± 1.5 µM.

With ILTSLLVLV [pp1a-3587] the EC50 (SD) was 8.3 ± 0.9 µM.

Sequence IVAGGIVAI [pp1a-3047] has an EC50 (SD) of 50.5 ± 2.5 µM.

KLIEYTDFA [pp1a-2901] was tested, and the EC50 (SD) was 126 ± 2.5 µM.

KLMPVCVET [pp1a-1387] was tested, and the EC50 (SD) was 174 ± 33.5 µM.

KLNEEIAII [pp1a-468] showed an EC50 (SD) of 56.2 ± 4.8 µM.

Sequence KLWAQCVQL [pp1a-3886] has an EC50 (SD) of 27.2 ± 9.4 µM.

KTLQPVSEL [pp1a-881] showed an EC50 (SD) of 162 ± 28.3 µM.

Sequence LLFLMSFTV [pp1a-3083] has an EC50 (SD) of 39.4 ± 0.9 µM.

For LLLTILTSL [pp1a-3583], the EC50 (SD) was 63.8 ± 3.1 µM.

LMWLIINLV [pp1a-2364] was tested, and the EC50 (SD) was 159 ± 42.8 µM.

Sequence MLAKALRKV [pp1a-1312] has an EC50 (SD) of 95.2 ± 0.7 µM.

Sequence MLFTMLRKL [pp1a-4032] has an EC50 (SD) of 166 ± 21.7 µM.

With NLAKHCLHV [pp1a-1109] the EC50 (SD) was 38.5 ± 8.2 µM.

QLFFSYFAV [pp1a-2348] was tested, and the EC50 (SD) was 146 ± 19.7 µM.

Sequence QLMCQPILL [pp1a-2563] has an EC50 (SD) of 11.1 ± 1.8 µM.

Sequence QLSLPVLQV [pp1a-15] has an EC50 (SD) of 79.4 ± 4.4 µM.

With RIMTWLDMV [pp1a-3662] the EC50 (SD) was 76.5 ± 7.1 µM.

With SLINTLNDL [pp1a-1433] the EC50 (SD) was 123 ± 11 µM.

Sequence SLIYSTAAL [pp1a-2242] has an EC50 (SD) of 134 ± 7.6 µM.

In the case of SLPGVFCGV [pp1a-3013], the EC50 (SD) is reported as 3.1 ± 0.2 µM.

SLRVCVDTV [pp1a-1161] was tested, and the EC50 (SD) was 85.7 ± 1.9 µM.

SMQNCVLKL [pp1a-3344] gave an EC50 (SD) of 105 ± 2.2 µM.

Sequence SMWALIISV [pp1a-3732] has an EC50 (SD) of 8.9 ± 0.4 µM.

With TLGVLVPHV [pp1a-103] the EC50 (SD) was 1.3 ± 0.2 µM.

TLGVYDYLV [pp1a-3807] showed an EC50 (SD) of 61.7 ± 8.7 µM.

For TLMNVLTLV [pp1a-3710], the EC50 (SD) was 2 ± 0.4 µM.

TLSEQLDFI [pp1a-214] was tested, and the EC50 (SD) was 2 ± 0.2 µM.

For TVYEKLKPV [pp1a-619], the EC50 (SD) was 5.6 ± 0.7 µM.

VINGDRWFL [pp1a-3475] was tested, and the EC50 (SD) was 85 ± 5.4 µM.

In the case of VLLSMQGAV [pp1a-3917], the EC50 (SD) is reported as 112 ± 7.2 µM.

In the case of VLLSVLQQL [pp1a-3871], the EC50 (SD) is reported as 44.9 ± 6 µM.

In the case of VLSEARQHL [pp1a-38], the EC50 (SD) is reported as 76.8 ± 6.8 µM.

VLVPHVGEI [pp1a-106] gave an EC50 (SD) of 76 ± 2 µM.

In the case of VMAYITGGV [pp1a-597], the EC50 (SD) is reported as 9.5 ± 0.9 µM.

With VMVELVAEL [pp1a-84] the EC50 (SD) was 6.8 ± 0.3 µM.

Work on WLMWLIINL [pp1a-2363] yielded an EC50 (SD) of 103 ± 6.4 µM.

With WMVMFTPLV [pp1a-3128] the EC50 (SD) was 9.8 ± 1.1 µM.

YITGGVVQL [pp1a-600] showed an EC50 (SD) of 48.5 ± 7.9 µM.

YLASGGQPI [pp1a-4283] showed an EC50 (SD) of 39.8 ± 6.2 µM.

YLATALLTL [pp1a-1675] gave an EC50 (SD) of 8.4 ± 0.2 µM.

YLEGSVRVV [pp1a-2968] gave an EC50 (SD) of 7.5 ± 0.1 µM.

With YLNSTNVTI [pp1a-2270] the EC50 (SD) was 8.9 ± 0.3 µM.

For YLTNDVSFL [pp1a-3115], the EC50 (SD) was 4.8 ± 0.3 µM.

YMPYFFTLL [pp1a-2168] was tested, and the EC50 (SD) was 99 ± 2.4 µM.
